One compound from patent US12023399B2, “Cleansing composition with pyrrolidone carboxylic acid” (The Procter & Gamble Company, priority 2021, dated 2024) can be followed below.

Molecules are shown by their SMILES.

The test relates to Staphylococcus aureus (ATCC #6538). In words: S. aureus growth on pH adjusted TSA plates. In kind it is cell-based. The settings on record: TSA plate pH 4.51 supplemented with 0.03% PCA, ~48 hrs at 33° C.; pH 5.99 plate without PCA shows colonies. As for the experimental part: The Staphylococcus aureus (ATCC #6538) bacteria cultures used herein can be created from commercially available Trypticase Soy Agar (TSA) plates that are streaked and incubated 17-20 hours at 35° C.±2° C. The resulting bacteria are grown in a conventional saline buffer solution with the optical density adjusted to deliver 10^9 to 10^10 cfu/mL. A sample of the bulk culture can be diluted 1:1,000,000 in saline buffer. 100 ul of the dilute bacteria culture is streak plated onto a TSA plate that is pH adjusted to pH 5.99 or onto a TSA plate that is pH adjusted to pH 4.51 and supplemented with 0.03% PCA. Plates are incubated ˜48 hrs at 33° C.±2° C. and photographed for growth as shown in FIGS. 2A (with pH 5.99) and 2B (with pH 4.5 and 0.03% PCA).

As for `O=C1CC[C@@H](C(=O)O)N1` [PCA, pyrrolidone carboxylic acid], the “S. aureus colonies after incubation” value is recorded as “no colonies are observed”.
